# Source: PubChem BioAssay AID608 (Sanford-Burnham Center for Chemical Genomics, 2007)
# The source made the active and inactive calls. How the calls were made is not given here.
# Biological target: Peptidyl-prolyl cis-trans isomerase FKBP1A (Homo sapiens) (UniProt P62942)
# Assay: small-molecule binding to FKBP12 – biophysical, NMR detection (AID 608)
# Settings: purified FKBP12
# Chain of Peptidyl-prolyl cis-trans isomerase FKBP1A (Homo sapiens) (P62942 whole entry, looked up): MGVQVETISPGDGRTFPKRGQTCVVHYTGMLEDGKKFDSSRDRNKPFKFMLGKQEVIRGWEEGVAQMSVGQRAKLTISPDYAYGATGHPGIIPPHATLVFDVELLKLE
row,Structure (SMILES),Kd
1,O=C(Nn1cnnc1)c1cc2c(s1)CCCC2,> 4 mM (inactive)
2,CC(C)=CCc1c2c(c3occ(-c4ccc(O)cc4)c(=O)c3c1O)C=CC(C)(C)O2,> 4 mM (inactive)
3,C=CCn1c(-c2ccc(O)cc2)n[nH]c1=S,> 4 mM (inactive)
4,O=CN1CCN(C(=O)c2ccc(F)cc2)CC1,> 4 mM (inactive)
5,COC(=O)C[C@@H]1C2(C)C(=O)[C@@H](CC3=C4C=C(OC)O[C@@H](c5ccoc5)[C@]4(C)CCC32)[C@H](O)C1(C)C (stereo partly specified),> 4 mM (inactive)
6,CC(=O)Nc1ccccc1OCC(N)=O,> 4 mM (inactive)
7,Cc1cc(NC(=O)NCCCSc2nncn2C)no1,> 4 mM (inactive)
8,Cc1noc(C)c1C(=O)Nc1ccc2c(c1)CCC2,> 4 mM (inactive)
9,COC(=O)CSc1nnc(-c2ccc(C(=O)O)cc2)o1,> 4 mM (inactive)
10,O=C(Nc1ccccc1)Nc1ccccn1,> 4 mM (inactive)
11,Cc1cc([N+](=O)[O-])cc[n+]1[O-],> 4 mM (inactive)
12,Cn1c(CN2CC(c3ccccc3)CC2=O)n[nH]c1=S (stereo unspecified),> 4 mM (inactive)
13,COc1ccc(C(N)=O)cc1N,> 4 mM (inactive)
14,O=C1CCCN1C(=O)CN1CCOCC1,> 4 mM (inactive)
15,CS(=O)(=O)N1CCN(c2ncccn2)CC1,> 4 mM (inactive)
16,COC1=CC23CCCN2CCc2cc4c(cc2C3C1O)OCO4 (stereo unspecified),> 4 mM (inactive)
17,COc1ccc(-c2nc(C)sc2CC(=O)O)cc1,> 4 mM (inactive)
18,Cc1noc(C)c1C(=O)Nc1ccccc1-c1ccccc1,> 4 mM (inactive)
19,Cn1c(SCC(N)=O)nc2c1c(=O)[nH]c(=O)n2C,> 4 mM (inactive)
20,CC(=O)Nc1ccc(Nc2nnc(C)c(=O)[nH]2)cc1,> 4 mM (inactive)
21,O=C1CCNc2cc3ccccc3cc21,> 4 mM (inactive)
22,Cc1nnc(NCCN2CCOCC2)[nH]c1=O,> 4 mM (inactive)
23,Cc1cc(O)cc(=O)n1CCCC(=O)O,> 4 mM (inactive)

row,Structure (SMILES),Kd
1,Cc1cc(C(=O)NC(C)c2ccncc2)cs1 (stereo unspecified),> 4 mM (inactive)
2,CNC(=O)c1cc2cccc(OC)c2oc1=O,> 4 mM (inactive)
3,O=C(O)C1CSC(c2ccc(Cl)cc2)N1 (stereo unspecified),> 4 mM (inactive)
4,COc1cccc(N2CCNCC2)c1,> 4 mM (inactive)
5,Nc1c(Nc2ccccc2)c2ccccc2oc1=O,> 4 mM (inactive)
6,O=C(Nc1nnc(-c2ccccc2Cl)o1)c1ccco1,> 4 mM (inactive)
7,COc1ccc2c(c1)C(NC(C)=O)C(=O)N2C (stereo unspecified),> 4 mM (inactive)
8,COC(=O)C[C@@H]1C2(C)C(=O)[C@@H](CC3=C4CC(=O)O[C@@H](c5ccoc5)[C@]4(C)CCC32)[C@H](OC(C)=O)C1(C)C (stereo partly specified),> 4 mM (inactive)
9,COc1cc2c(cc1OC)[C@@H]1C(=O)c3ccc4c(c3O[C@@H]1CO2)CC(C(C)C)O4 (stereo partly specified),> 4 mM (inactive)
10,CC(=O)OCC[C@H](C)CCC=C(C)C,> 4 mM (inactive)
11,NC1C2CC3CC1CC(O)(C3)C2 (stereo unspecified),> 4 mM (inactive)
12,CC(=O)c1c(C)nc(-c2ccc(Cl)cc2Cl)n1O,> 4 mM (inactive)
13,CCn1nnnc1Oc1ccc(Cl)cc1,> 4 mM (inactive)
14,COc1cc2nc(-c3cccs3)oc(=O)c2cc1OC,> 4 mM (inactive)
15,CCOC(=O)N1CCN(c2ncnc3c2cnn3C)CC1,> 4 mM (inactive)
16,O=C1CSC(=S)N1Cc1cccnc1,> 4 mM (inactive)
17,CC(C)CCCC(C)C1CCC2C3C[C@@H](O)[C@@]4(O)C[C@@H](O)CC[C@]4(C)C3CC[C@]12C (stereo partly specified),> 4 mM (inactive)
18,CC(C)c1ccc(SC(F)(F)C(=O)N2CCOCC2)cc1,0.0028 mM
19,c1ccc(-c2nc3ccccc3nc2-c2ccccn2)nc1,> 4 mM (inactive)
20,Nc1c(N2CCCC2)cnn(-c2ccccc2)c1=O,> 4 mM (inactive)
21,c1ccc(NCc2nc(-c3ccccc3)no2)cc1,> 4 mM (inactive)
22,O=C(O)Cn1nc(-c2ccccc2)c2ccccc2c1=O,> 4 mM (inactive)
23,CC1=C(/C=C/C(C)=C/C=C/C(C)=C/CO)C(C)(C)CCC1,> 4 mM (inactive)
